For one data set, the system named is human rhinovirus HRV 14. The data set can be described thus: HRV-HeLa test system: cytopathic effect of human rhinovirus in HeLa cells. The note with it: HRV 14, HeLa, XTT test 72 h post infection; read-out: EC50 inhibition of CPE. The class given is cell-based. (Damage to the host cells serves as the signal in cytopathic effect assays.)
The test system of a further data set is mock-infected HeLa cells. The data set can be described thus: Toxicity (cell viability) in mock-infected HeLa cells, XTT test. The class given is cell-based, human. The note with it: at EC50 concentrations (0.1 μM and below). On the procedure: (§1) Inhibition by CapsiVirol-T of the HRV cytopathic effect and effects on cell viability were tested using a HeLa strain which is less sensitive to tNOX inhibitors than certain other HeLa cells (Institute for Infectious Medicine, Berlin, Germany) (FIG. 17). In these studies, both CapsiVirol-T and EGCg, the principal green tea catechin, were tested. […] The test substance-containing medium was removed and the cells were infected with viruses at a multiplicity of infection of 0.1. For controls, virus infections were in the absence of the test substance. Mock infections were in the presence and absence of the test substance. Cell viability was measured in the XTT test directly at the days post infection (d.p.i.) indicated (FIG. 17). […] The cytopathic effect induced by a virus was determined from a decrease of cell viability (=decrease of […] nm in comparison to the mock infected control in the absence of the test substance). Cell viability was monitored using the XTT test after 1, 2, and 3 days p.i. A control was at 1.5 h p.i. (in the figure 0 d p.i.) (FIG. 18). High OD values represent living cells, and low OD values represent cell damage. This damage is either induced by HRV14 (=cytopathic effect/CPE) or a toxic effect of the compound in mock-infected cells.
For orientation: Tetrazolium assays rely on reduction of a dye to a coloured formazan, in cell work by metabolically active cells.

The subject of data set [1] is HXB II standard virus strain of HIV. Put plainly: HIV-1 replication in MT-2 cells scored by p24 antigen production. The class given is cell-based. The source says:
(§2) The MT-2 cell line, which cells are retrovirus transformed, was used. Virus applied to the MT-2 cells was the HXB II standard virus strain of HIV, isolated early in the 1980's (HIV Research Community Standard Reference Gene Sequence Data Base No. 135829). […] The main characteristic of the HXBII virus strain was to induce syncytia (SI) in certain cells such as MT-2 cells. This permitted assessment of the production of HIV by light microscopy, and thus, by titration of supernatant, the amount of infectious virus. Virus replication was determined as follows. Antiviral activity was assessed at day four or five after infection by scoring p24 antigen production by a commercial kit (DuPont) and by titration of the supernatants. Each well of each concentration of compound was titrated in a fourfold assay. MT-2 cells (4×10^5 per well) were added to all titration steps. After incubation, 100 μl of supplemented RPMI 1640 was added. After 5 d, all wells were scored for SI formation by light microscopy. The highest dilution (titer) displaying at least one SI were scored as positive, and the highest titers were averaged. […] Both MT-2 cell and PBM cell supernatants were titered on MT-2 cells. Testing the antiviral potency of various compositions was accomplished as follows. EGCg and EC were from Sigma (St. Louis, Mo.). Stock solutions of 100 mM were prepared in ethanol and serially diluted with water between 10^−3 molar and 10^−9 molar. […] Each experiment was in a fourfold assay.

The test system of a further data set is HIV. Put plainly: Infectivity of HIV in MT-2 cells or PBMCs at different control virus titers. The class given is cell-based.
Data set [2] concerns human peripheral blood lymphocytes. Put plainly: Viability of human peripheral blood lymphocytes. Format: cell-based. The note with it: data not shown.
The test system of data set [3] is HXB II standard virus strain of HIV. The data set can be described thus: HIV-1 replication in MT-2 cells scored by titration of supernatants (syncytia). The class given is cell-based.
Description: as §2

In another data set the test system is HRV14. The data set can be described thus: HRV14-induced CPE in less sensitive (Berlin) HeLa strain, XTT test. Format: cell-based, human rhinovirus. As to conditions: for EC50: read-out: EC50 to prevent a cytopathic effect. On the procedure:
as §1, with “substance). […] Cell viability was measured with the XTT test. Virus inoculation in the presence of CapsiVirol-T (without FCS) was for 30 min. […]” for “substance).”

The test system of data set [4] is TMEV/GDVII virus, TMEV/Bean virus. Format: cell-based, Theiler's murine encephalomyelitis virus. As to conditions: RAW macrophages.
In the next data set the test system is Herpes simplex virus 1. Format: cell-based. The note with it: HeLa cells.

SMILES strings stand for the structures. Like-named read-outs stand apart in the source and are kept apart here.

For `O=C(O[C@@H]1Cc2c(O)cc(O)cc2O[C@@H]1c1cc(O)c(O)c(O)c1)c1cc(O)c(O)c(O)c1` [EGCg, (−)-epigallocatechin-3-gallate], the EC50 with human rhinovirus HRV 14 is about 1 µM; with HIV (control virus production of 14,000 infective particles/ml, read-out: EC50 reducing infectivity of HIV), about 1 µM; with HIV (control virus production of 40,000 infective particles/ml, read-out: EC50 reducing infectivity of HIV), about 10 µM; with HIV (read-out: EC50 for prevention of infection (day 4 supernatants reassayed on MT-2 cells, syncytia after 5 days)), about 0.1 µM; in the data set on HRV14 (day 1), under 0.1 µM; in the data set on HRV14 (day 2) it was 0.1 µM. In addition, the toxicity entry with mock-infected HeLa cells was “not toxic”. Also, in data set [1] (1 nM), the “effect on p24 production” value is given as “no effect”. Moreover, in data set [1] (10^−4 M, 4 or 5 d), the “inhibition of virus production (p24) as compared to the virus control” value is on record as 93%. Moreover, the “inhibition of virus replication (p24)” value in [1] (10^−5 M, 4 or 5 d) came out at 45%. In data set [1] (10^−6 and 10^−7 M), the “inhibitory effect (p24)” value is reported as “approximately 20%”. The “infectivity (syncytia reassay)” value with HIV (1 μM) was “almost entirely prevented”. In addition, in [2], the effect on viability entry is given as “without effect”. The reduction of titers result is given as “no reduction” in data set [3] (1 nM); “approximately 50%” in data set [3] (10^−6 and 10^−7 M); 40% in data set [3] (10^−8 M). In addition, in [3] (10^−5 M), the “titrated virus, % of the virus control or EC control” value is recorded as 20%. In addition, in the data set with HRV14, the “fold higher concentration compared to CapsiVirol-T required to achieve inhibition” value is recorded as at least 10 fold. For the same compound, the infection result (in [4]; in the data set with Herpes simplex virus 1) was “prevented” throughout.

For orientation: EC50 means the concentration needed to bring the measured effect to its halfway point.

(Values after patent publication US20070077316A1, “Compositions and methods for treating and preventing virus infections” (priority 2005, published 2007).)
